Activity calls are given as the source filed them. No cut-off for these calls is given here.
Columns and labels:
[1] = biological target: T1, Vitamin D3 receptor (Homo sapiens, UniProt P11473); assay: Agonist activity at VDR (unknown origin) expressed in CHO-K1 cells at 5 uM by luciferase reporter assay; format: cell-based; settings: cho-k1, 5 µM
T1 sequence (P11473 whole entry): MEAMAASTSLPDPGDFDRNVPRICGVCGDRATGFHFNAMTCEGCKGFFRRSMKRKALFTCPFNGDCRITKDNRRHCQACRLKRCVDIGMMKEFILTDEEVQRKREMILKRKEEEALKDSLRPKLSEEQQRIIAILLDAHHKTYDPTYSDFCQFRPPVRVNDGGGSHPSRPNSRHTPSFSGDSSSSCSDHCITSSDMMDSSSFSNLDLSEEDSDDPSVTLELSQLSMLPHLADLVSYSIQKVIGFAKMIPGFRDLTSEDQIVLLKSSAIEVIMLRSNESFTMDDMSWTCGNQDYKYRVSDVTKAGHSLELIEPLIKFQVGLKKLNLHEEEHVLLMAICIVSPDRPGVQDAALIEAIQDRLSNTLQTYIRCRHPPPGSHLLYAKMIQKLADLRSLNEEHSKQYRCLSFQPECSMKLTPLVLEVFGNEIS

[2] = Effect on serum calcium level in mouse assessed as increase in calcium level at 10 mg/kg, ip administered once daily for 4 days […]; format: ADME, organism-based; settings: in vivo, 96 h, time 4 day
[3] = organism: Mus musculus; settings: Liver, dose 10.0 mg/kg, time 4.0 day
[4] = organism: Mus musculus; settings: Liver, dose 10.0 mg/kg, time 4.0 day; remark: listed apart in the source
[5] = Toxicity in ob/ob mouse assessed as sick at 10 mg/kg, ip administered 5 times per week for 4 weeks; format: organism-based; settings: in vivo, 672 h
[6] = Toxicity in ob/ob mouse assessed as increase in weight at 10 mg/kg, ip administered 5 times per week for 4 weeks; format: organism-based; settings: in vivo, 672 h
[7] = test system: CHO; assay: Cytotoxicity against Chinese hamster CHO cells by beta-galactosidase reporter gene assay; format: cell-based, Cricetulus griseus
[8] = biological target: T2, Sterol regulatory element-binding protein 1 (Homo sapiens, UniProt P36956); assay: Inhibition of SREBP (unknown origin) expressed in CHO-K1 cells by luciferase reporter assay; format: cell-based
T2 sequence (P36956 whole entry): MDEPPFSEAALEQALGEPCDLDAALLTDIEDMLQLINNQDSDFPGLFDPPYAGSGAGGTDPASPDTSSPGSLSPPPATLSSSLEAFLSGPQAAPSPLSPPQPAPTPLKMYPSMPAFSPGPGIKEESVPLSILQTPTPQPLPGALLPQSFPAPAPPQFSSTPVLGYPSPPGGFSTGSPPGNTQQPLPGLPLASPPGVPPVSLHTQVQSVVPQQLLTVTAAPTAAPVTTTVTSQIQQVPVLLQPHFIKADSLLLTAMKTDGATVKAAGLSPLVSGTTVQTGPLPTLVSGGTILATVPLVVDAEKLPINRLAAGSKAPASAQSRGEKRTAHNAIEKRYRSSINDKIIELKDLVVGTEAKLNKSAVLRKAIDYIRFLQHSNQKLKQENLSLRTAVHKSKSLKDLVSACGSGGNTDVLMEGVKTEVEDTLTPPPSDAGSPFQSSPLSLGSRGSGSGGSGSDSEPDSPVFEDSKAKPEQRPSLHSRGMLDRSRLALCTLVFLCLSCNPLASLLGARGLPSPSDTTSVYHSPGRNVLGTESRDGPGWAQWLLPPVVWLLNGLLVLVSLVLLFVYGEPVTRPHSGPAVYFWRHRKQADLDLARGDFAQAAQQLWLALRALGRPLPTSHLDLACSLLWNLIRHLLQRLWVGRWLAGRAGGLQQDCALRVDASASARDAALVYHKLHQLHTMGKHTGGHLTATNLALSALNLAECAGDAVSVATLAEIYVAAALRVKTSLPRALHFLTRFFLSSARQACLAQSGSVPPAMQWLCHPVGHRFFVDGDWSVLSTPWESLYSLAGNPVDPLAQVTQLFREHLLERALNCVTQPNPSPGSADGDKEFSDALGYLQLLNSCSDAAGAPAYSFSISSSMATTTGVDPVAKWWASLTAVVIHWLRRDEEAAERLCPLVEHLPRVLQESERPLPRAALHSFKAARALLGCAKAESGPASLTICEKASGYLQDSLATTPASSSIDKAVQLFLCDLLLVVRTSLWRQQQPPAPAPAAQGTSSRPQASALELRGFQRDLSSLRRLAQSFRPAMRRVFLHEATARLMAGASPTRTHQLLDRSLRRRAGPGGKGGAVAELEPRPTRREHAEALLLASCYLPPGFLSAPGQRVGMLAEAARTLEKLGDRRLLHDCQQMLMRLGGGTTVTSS

[9] = biological target: T3, Sterol regulatory element-binding protein cleavage-activating protein (Homo sapiens) (UniProt Q12770); assay: Inhibition of FLAG-tagged SCAP (unknown origin) expressed in CHO-K1 cells assessed as reduction in SCAP protein level at 5 uM after 24 hrs by Western blotting analysis; format: cell-based
T3 sequence (whole entry): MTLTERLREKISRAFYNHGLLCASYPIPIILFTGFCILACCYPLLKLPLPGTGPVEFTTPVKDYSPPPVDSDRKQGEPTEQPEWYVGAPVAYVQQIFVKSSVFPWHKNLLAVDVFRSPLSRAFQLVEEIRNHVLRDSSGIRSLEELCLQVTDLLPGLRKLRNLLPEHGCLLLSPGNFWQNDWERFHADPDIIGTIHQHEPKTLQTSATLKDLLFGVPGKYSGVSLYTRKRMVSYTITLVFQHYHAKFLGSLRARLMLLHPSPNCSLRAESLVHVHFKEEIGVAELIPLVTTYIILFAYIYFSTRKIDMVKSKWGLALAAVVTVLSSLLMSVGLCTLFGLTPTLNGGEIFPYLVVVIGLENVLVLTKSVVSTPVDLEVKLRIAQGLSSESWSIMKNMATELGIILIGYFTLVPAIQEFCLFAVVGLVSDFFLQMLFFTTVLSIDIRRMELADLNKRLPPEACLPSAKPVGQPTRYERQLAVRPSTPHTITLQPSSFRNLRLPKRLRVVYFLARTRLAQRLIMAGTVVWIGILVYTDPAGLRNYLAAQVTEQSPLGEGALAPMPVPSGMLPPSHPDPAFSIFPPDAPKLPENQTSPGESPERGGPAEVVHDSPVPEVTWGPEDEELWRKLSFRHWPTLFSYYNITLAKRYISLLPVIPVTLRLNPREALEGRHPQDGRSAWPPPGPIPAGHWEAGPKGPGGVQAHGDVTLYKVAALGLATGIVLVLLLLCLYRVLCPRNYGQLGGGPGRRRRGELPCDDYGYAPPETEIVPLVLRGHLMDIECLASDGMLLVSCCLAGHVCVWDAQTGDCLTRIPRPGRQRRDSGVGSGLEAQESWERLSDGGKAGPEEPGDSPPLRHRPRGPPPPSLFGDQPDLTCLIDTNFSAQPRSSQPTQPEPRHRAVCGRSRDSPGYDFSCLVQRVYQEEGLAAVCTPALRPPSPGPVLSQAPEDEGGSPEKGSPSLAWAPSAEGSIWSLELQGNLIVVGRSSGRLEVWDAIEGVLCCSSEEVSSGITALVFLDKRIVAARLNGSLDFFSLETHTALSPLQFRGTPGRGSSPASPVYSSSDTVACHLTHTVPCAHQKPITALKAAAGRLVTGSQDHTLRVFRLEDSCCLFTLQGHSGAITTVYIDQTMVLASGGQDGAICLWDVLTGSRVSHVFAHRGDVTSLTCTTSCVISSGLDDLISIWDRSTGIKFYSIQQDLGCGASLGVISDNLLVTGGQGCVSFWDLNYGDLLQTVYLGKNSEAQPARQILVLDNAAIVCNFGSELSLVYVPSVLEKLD

C[C@H](CCCC(C)(C)O)[C@H]1CC[C@H]2/C(=C/Cn3ncnn3)CCC[C@]12C
Activity [1]: Active

C[C@H](CCCC(C)(C)O)[C@H]1CC[C@H]2/C(=C/Cn3cc(-c4ccccn4)nn3)CCC[C@]12C
Activity [1]: Active

C[C@H](CCC(F)(F)C(C)(C)O)[C@H]1CC[C@H]2/C(=C/Cn3cc(-c4ccc(F)cc4)nn3)CCC[C@]12C
Activity [1]: Not Active

C[C@H](CCCC(O)(C(F)(F)F)C(F)(F)F)[C@H]1CC[C@H]2/C(=C/Cn3cc(-c4ccc(F)cc4)nn3)CCC[C@]12C
Activity [2]: Toxic
Activity [1]: Not Active
inhibition [3]: Active
inhibition [4]: Active

C[C@H](CCC(F)(F)C(C)(C)O)[C@H]1CC[C@H]2/C(=C/Cn3nnnc3-c3ccccc3)CCC[C@]12C
Activity [5]: Non-Toxic
Activity [6]: Toxic
Activity [7]: Non-Toxic

C[C@H](CCCC(C)(C)O)[C@H]1CC[C@H]2/C(=C/Cn3cnnn3)CCC[C@]12C
Activity [1]: Active

C=C1CC[C@H](O)C/C1=C/C=C1\CCC[C@]2(C)[C@@H]([C@H](C)CCCC(C)(C)O)CC[C@@H]12 [CALCIFEDIOL ANHYDROUS]
IC50 [8]: 1.18 µM
Activity [2]: Toxic
inhibition [9]: Active
Activity [5]: Toxic

C[C@H](CCCC(O)(C(F)(F)F)C(F)(F)F)[C@H]1CC[C@H]2/C(=C/Cn3cc(-c4ccccc4)nn3)CCC[C@]12C
Activity [2]: Toxic
inhibition [3]: Active
inhibition [4]: Active

C[C@H](CCCC(C)(C)O)[C@H]1CC[C@H]2/C(=C/Cn3cc(CCCCO)nn3)CCC[C@]12C
Activity [1]: Active

C[C@H](CCC(F)(F)C(C)(C)O)[C@H]1CC[C@H]2/C(=C/Cn3nnnc3-c3ccc(F)cc3)CCC[C@]12C
Activity [1]: Not Active
Activity [7]: Non-Toxic

CCCc1cc(-c2nc(-c3ccc(NS(C)(=O)=O)cc3)cs2)ccn1
IC50 [8]: 0.7 µM

C[C@H](CCC(F)(F)C(C)(C)O)[C@H]1CC[C@H]2/C(=C/Cn3nnc(-c4ccc(F)cc4)n3)CCC[C@]12C
Activity [1]: Not Active
Activity [7]: Non-Toxic
